Source: article PMC10085060 (Oncotarget, 2023)

Assays:
[1] = Day 10 of riluzole single agent treatment (100 mg BID), advanced melanoma patients, n = 9; cited from earlier work
RAF1 = conditions: cited from earlier work
[2] = Drug related adverse events (CTCAE version 4.0); format: in vivo, human
Procedure: Safety assessments including complete blood counts, serum chemistries, liver enzymes and toxicity evaluations were completed at baseline, day 1 and 15 of cycle 1, and then day 1 of every cycle thereafter. Toxicities were evaluated and graded using the CTEP NCI Common Terminology Criteria for Adverse Events (CTCAE), version 4.0.

[3] = drug related AE, Grade ≥3, n=35
[4] = drug related AE, any grade, n=35

In the case of `Nc1nc2ccc(OC(F)(F)F)cc2s1` [riluzole], the “riluzole trough levels, geomean” value [1] is listed as 78.4 ng/mL.
For `CNC(=O)c1cc(Oc2ccc(NC(=O)Nc3ccc(Cl)c(C(F)(F)F)c3)cc2)ccn1` [sorafenib], the IC50 (RAF1) is listed as […], the “Abdominal Pain” value [2, 3] is listed as 0 and the “Alkaline Phosphatase Increase” value [2, 3] is listed as 2. It also gave an Anemia [2, 3] of 1, an Anorexia [2, 3] of 0 and an Arthralgia [2, 3] of 1. For the same compound, the “Cardiac troponin I increased” value [2, 3] was 1, the “Congestive Heart Failure” value [2, 3] was 1 and the Fatigue [2, 3] was 4. It also gave a Hypertension [2, 3] of 1, a Hypokalemia [2, 3] of 1 and a Hyponatremia [2, 3] of 2. For the same compound, the Hypophosphatemia [2, 3] was 4, the “Lipase Increase” value [2, 3] was 2 and the “Lymphocyte Count Decrease” value [2, 3] was 6. The “Maculopapular Rash” value [2, 3] was 4, the Myocardial infarction [2, 3] was 1 and the Neutrophil count decrease [2, 3] was 0. The Palmar-plantar erythrodysesthesia syndrome [2, 3] was 1, the Pruritus [2, 3] was 1 and the “White Blood Cell Decreased” value [2, 3] was 2. For the same compound, the Wound complication [2, 3] was 1, the “Abdominal Pain” value [2, 4] was 0 and the “Acute Coronary Syndrome” value [2, 4] was 1. For the same compound, the “Acute Kidney Injury” value [2, 4] was 0, the “Alanine Aminotransferase Increase” value [2, 4] was 1 and the “Alkaline Phosphatase Increase” value [2, 4] was 2. For the same compound, the Alopecia [2, 4] was 0, the Anemia [2, 4] was 8 and the Anorexia [2, 4] was 6. The Arthralgia [2, 4] was 1, the “Aspartate Aminotransferase Increase” value [2, 4] was 3 and the Ataxia [2, 4] was 0. For the same compound, the “Blood Bilirubin Increase” value [2, 4] was 2, the Blurred vision [2, 4] was 0 and the Bullous dermatitis [2, 4] was 1. The “Cardiac troponin I increased” value [2, 4] was 1, the “Congestive Heart Failure” value [2, 4] was 1 and the Cough [2, 4] was 0. It also gave a Depression [2, 4] of 0, a Diarrhea [2, 4] of 8 and a Dizziness [2, 4] of 0. For the same compound, the “Dry Mouth” value [2, 4] was 1, the Dry skin [2, 4] was 4 and the Dysarthria [2, 4] was 0. The Dysgeusia [2, 4] was 1, the Dyspepsia [2, 4] was 1 and the Dyspnea [2, 4] was 0. For the same compound, the “Edema (limbs)” value [2, 4] was 1, the Fatigue [2, 4] was 13 and the “Fecal Incontinence” value [2, 4] was 1. For the same compound, the Fever [2, 4] was 0, the Flatulence [2, 4] was 0 and the “Gastrointestinal Fistula” value [2, 4] was 1. For the same compound, the Gastroparesis [2, 4] was 0, the Headache [2, 4] was 0 and the Hoarseness [2, 4] was 0. For the same compound, the Hypercalcemia [2, 4] was 1, the Hyperglycemia [2, 4] was 4 and the Hyperkalemia [2, 4] was 3. For the same compound, the Hypertension [2, 4] was 6, the Hypoalbuminemia [2, 4] was 3 and the Hypocalcemia [2, 4] was 2. The Hypokalemia [2, 4] was 1, the Hypomagnesemia [2, 4] was 2 and the Hyponatremia [2, 4] was 7. For the same compound, the Hypophosphatemia [2, 4] was 11, the Hypotension [2, 4] was 1 and the Hypothyroidism [2, 4] was 1. The “Increased blood urea nitrogen” value [2, 4] was 1, the Insomnia [2, 4] was 0 and the “Lipase Increase” value [2, 4] was 5. The “Lymphocyte Count Decrease” value [2, 4] was 10, the “Maculopapular Rash” value [2, 4] was 11 and the Mucosal infection [2, 4] was 1. It also gave a Mucositis oral [2, 4] of 5, a Muscle weakness [2, 4] of 1 and a Myalgia [2, 4] of 0. For the same compound, the Myocardial infarction [2, 4] was 1, the Nausea [2, 4] was 2 and the Neutrophil count decrease [2, 4] was 0. The Oral pain [2, 4] was 1, the Palmar-plantar erythrodysesthesia syndrome [2, 4] was 11 and the “Peripheral Sense Neuropathy” value [2, 4] was 1. The “Platelet Count Decrease” value [2, 4] was 3, the Pruritus [2, 4] was 4 and the Serum amylase increased [2, 4] was 3. For the same compound, the “Urinary Tract Infection” value [2, 4] was 1, the “Voice Alteration” value [2, 4] was […] and the Vomiting [2, 4] was 1. For the same compound, the “Weight Loss” value [2, 4] was 2, the “White Blood Cell Decreased” value [2, 4] was 2 and the Would dehiscence [2, 4] was 1. The Wound complication [2, 4] was 1, the “patients with toxicities attributed to the drug (alone), number” value ([2]; of 35 patients) was 28 and the “patients with toxicities attributed to the drug by the treating investigator” value ([2]; of 35 patients) was 80%.
